Test results as given in ChEMBL document CHEMBL5291721, “A preclinical secondary pharmacology resource illuminates target-adverse drug reaction associations of marketed drugs” (Nat Commun, 2023).

Key:
[1] = target: Gamma-aminobutyric acid receptor subunit alpha-1/alpha-2/beta-2/gamma-2 (Homo sapiens, UniProt P14867+P18507+P47869+P47870); type: functional, cell-based
[2] = target: Mu-type opioid receptor (Homo sapiens, UniProt P35372)
[3] = target: T1, 5-hydroxytryptamine receptor 2C (Homo sapiens, UniProt P28335)
T1 sequence (P28335 whole entry): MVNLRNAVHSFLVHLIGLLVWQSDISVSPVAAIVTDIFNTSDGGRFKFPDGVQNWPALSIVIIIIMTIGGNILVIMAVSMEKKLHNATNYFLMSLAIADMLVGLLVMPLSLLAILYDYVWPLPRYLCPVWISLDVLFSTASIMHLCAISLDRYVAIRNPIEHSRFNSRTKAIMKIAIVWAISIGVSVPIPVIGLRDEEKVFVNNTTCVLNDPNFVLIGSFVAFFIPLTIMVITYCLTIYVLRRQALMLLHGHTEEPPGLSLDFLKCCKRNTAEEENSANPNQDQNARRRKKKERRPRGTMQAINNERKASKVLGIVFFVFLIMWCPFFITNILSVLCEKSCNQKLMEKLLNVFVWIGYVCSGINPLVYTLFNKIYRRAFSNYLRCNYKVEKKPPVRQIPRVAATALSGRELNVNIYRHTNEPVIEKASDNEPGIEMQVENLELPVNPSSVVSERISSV

[4] = target: T2, Alpha-1A adrenergic receptor (Homo sapiens, UniProt P35348); type: functional, cell-based
T2 sequence (P35348 whole entry): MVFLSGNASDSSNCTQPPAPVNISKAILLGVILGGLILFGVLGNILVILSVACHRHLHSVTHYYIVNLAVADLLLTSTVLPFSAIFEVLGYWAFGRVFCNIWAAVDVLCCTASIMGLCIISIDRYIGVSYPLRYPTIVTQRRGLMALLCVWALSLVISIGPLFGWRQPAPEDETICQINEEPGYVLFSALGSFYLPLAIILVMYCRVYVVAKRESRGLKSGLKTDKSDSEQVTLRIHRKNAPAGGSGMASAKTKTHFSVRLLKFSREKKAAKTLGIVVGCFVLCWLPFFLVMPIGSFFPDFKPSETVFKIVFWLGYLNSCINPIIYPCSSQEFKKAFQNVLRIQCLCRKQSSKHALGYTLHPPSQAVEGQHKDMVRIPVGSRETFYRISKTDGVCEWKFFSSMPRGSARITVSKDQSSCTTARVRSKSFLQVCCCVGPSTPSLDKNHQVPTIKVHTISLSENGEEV

[5] = target: T3, 5-hydroxytryptamine receptor 3A (Homo sapiens, UniProt P46098); type: functional
T3 sequence (P46098 whole entry): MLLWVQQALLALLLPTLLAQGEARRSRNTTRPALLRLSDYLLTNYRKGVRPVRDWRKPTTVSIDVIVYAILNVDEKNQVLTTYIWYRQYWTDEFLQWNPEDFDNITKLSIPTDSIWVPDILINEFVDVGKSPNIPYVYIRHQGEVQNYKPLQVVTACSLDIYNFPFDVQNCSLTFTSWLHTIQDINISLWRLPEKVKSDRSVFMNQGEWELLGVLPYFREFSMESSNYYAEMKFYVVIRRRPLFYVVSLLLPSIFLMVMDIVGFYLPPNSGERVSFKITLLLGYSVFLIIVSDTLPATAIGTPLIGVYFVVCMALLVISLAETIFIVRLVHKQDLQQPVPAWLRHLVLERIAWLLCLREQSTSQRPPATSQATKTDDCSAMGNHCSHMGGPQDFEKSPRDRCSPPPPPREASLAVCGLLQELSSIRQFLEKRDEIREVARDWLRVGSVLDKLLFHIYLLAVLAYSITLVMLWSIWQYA

[6] = target: Bile salt export pump (Homo sapiens, UniProt O95342); type: functional
Chain of Bile salt export pump (O95342 whole entry): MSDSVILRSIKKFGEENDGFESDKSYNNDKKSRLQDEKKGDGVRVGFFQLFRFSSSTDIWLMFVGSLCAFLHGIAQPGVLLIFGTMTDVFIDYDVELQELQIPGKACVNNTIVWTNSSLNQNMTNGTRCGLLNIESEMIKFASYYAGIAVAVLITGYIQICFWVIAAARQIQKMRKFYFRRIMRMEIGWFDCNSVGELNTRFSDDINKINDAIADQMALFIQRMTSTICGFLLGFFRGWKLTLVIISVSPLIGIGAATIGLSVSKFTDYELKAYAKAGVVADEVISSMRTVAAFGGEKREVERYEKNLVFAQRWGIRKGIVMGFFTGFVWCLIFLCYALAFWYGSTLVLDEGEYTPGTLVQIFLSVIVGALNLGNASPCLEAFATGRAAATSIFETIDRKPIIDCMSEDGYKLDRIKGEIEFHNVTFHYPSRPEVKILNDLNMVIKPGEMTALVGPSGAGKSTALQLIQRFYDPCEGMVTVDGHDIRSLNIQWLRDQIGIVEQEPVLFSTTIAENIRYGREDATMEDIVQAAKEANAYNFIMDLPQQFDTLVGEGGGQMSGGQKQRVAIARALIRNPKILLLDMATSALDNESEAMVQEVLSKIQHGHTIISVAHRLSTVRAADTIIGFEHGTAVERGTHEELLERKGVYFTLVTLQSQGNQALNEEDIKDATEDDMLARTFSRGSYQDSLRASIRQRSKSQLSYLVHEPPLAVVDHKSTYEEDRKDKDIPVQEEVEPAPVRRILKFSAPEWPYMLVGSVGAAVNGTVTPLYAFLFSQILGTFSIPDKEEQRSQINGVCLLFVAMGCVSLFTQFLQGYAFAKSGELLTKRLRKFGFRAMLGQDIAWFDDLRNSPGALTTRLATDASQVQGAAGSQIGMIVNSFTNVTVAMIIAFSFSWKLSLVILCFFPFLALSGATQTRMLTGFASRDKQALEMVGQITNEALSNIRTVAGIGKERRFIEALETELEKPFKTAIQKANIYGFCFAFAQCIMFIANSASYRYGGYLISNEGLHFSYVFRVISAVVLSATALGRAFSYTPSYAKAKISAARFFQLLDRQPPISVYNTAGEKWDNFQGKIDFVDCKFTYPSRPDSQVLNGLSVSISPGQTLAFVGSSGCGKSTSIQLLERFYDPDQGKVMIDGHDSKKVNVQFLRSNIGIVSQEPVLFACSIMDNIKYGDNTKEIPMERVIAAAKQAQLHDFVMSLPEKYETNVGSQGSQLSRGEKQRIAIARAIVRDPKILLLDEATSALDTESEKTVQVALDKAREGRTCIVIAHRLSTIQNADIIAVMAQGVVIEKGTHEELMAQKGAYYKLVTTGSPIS

[7] = target: Gamma-aminobutyric acid receptor subunit alpha-1 (Rattus norvegicus, UniProt P62813); type: functional
Chain of Gamma-aminobutyric acid receptor subunit alpha-1 (P62813 whole entry): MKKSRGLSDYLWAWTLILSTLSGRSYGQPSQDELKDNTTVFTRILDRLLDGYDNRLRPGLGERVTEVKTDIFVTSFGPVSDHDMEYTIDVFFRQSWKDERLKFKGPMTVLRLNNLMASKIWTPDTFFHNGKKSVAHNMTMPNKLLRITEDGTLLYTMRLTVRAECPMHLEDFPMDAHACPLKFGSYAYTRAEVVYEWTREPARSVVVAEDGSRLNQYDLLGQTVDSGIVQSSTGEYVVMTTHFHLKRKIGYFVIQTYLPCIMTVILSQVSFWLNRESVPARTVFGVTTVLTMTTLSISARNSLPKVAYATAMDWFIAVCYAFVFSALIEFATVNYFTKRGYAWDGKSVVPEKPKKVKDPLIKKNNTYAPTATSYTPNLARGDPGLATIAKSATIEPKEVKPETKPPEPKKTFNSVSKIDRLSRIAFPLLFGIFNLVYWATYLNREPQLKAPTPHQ

[8] = target: Melanocortin receptor 3 (Homo sapiens, UniProt P41968)
Chain of Melanocortin receptor 3 (P41968 whole entry): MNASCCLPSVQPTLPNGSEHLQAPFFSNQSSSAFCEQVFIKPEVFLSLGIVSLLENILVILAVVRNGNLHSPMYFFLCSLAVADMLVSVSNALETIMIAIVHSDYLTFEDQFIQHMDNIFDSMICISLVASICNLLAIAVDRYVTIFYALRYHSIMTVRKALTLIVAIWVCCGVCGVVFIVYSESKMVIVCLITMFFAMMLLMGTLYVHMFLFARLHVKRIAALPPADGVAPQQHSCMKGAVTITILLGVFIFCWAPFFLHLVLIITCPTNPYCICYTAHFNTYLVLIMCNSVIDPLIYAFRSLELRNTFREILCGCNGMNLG

[9] = target: Sodium-dependent noradrenaline transporter (Homo sapiens, UniProt P23975)
Chain of Sodium-dependent noradrenaline transporter (P23975 whole entry): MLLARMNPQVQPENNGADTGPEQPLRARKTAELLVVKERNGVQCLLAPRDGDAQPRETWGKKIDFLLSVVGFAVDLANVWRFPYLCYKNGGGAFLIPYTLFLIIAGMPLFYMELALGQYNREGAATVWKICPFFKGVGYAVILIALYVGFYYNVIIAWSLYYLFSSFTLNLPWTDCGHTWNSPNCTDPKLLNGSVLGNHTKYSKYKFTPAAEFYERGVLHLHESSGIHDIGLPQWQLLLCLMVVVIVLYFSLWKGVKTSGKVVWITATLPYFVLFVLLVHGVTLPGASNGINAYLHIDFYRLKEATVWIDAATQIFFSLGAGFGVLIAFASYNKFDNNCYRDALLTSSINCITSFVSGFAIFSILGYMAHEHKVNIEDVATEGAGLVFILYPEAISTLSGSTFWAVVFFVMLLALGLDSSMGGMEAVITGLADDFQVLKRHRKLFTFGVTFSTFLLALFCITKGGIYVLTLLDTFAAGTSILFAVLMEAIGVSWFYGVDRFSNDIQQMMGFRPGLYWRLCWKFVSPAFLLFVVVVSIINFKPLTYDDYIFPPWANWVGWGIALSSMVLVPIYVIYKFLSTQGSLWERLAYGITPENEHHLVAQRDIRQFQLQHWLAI

[10] = target: T4, Alpha-2C adrenergic receptor (Homo sapiens, UniProt P18825); type: functional
T4 sequence (P18825 whole entry): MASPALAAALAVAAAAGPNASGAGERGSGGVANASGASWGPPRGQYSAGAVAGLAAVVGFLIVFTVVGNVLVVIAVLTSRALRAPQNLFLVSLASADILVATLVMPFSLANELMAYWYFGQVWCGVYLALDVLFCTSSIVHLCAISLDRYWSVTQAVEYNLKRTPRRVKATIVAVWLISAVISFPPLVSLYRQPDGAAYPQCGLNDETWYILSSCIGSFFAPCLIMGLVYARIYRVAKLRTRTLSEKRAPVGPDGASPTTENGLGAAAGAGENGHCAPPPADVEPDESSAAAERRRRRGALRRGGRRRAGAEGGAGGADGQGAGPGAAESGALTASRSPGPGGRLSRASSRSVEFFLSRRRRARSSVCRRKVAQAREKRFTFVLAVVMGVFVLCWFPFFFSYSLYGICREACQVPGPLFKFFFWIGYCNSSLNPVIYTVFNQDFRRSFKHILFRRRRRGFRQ

[11] = target: 5-hydroxytryptamine receptor 2A (Homo sapiens, UniProt P28223); type: functional, cell-based
Chain of 5-hydroxytryptamine receptor 2A (P28223 whole entry): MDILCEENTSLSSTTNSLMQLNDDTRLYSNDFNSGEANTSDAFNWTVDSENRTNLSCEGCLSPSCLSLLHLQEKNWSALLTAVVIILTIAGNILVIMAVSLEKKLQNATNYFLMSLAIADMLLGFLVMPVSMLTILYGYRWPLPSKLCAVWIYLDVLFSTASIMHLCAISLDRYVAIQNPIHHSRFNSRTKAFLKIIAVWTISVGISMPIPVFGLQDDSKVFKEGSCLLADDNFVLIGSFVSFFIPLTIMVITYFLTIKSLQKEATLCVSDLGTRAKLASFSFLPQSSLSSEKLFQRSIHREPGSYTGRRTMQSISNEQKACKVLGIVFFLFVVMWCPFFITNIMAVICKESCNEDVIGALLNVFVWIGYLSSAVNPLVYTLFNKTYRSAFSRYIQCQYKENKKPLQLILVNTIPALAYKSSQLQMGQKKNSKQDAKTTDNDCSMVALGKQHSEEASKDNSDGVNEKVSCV

[12] = target: T5, Alpha-2B adrenergic receptor (Homo sapiens, UniProt P18089)
T5 sequence (P18089 whole entry): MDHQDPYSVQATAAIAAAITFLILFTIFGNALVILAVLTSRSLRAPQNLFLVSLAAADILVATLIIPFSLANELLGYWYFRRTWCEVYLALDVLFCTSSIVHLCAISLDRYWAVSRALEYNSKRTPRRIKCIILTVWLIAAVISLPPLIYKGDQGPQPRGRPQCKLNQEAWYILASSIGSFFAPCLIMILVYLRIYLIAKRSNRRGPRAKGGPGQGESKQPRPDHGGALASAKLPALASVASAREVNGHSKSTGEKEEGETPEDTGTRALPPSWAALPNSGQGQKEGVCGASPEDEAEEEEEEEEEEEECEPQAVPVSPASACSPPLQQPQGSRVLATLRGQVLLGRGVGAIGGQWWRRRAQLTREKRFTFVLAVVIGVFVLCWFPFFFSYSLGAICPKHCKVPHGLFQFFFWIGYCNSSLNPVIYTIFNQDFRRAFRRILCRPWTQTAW

[13] = target: T2, Alpha-1A adrenergic receptor; type: functional, cell-based; remark: listed apart in the source
Also: assay procedure not described here.

Chain of Mu-type opioid receptor (P35372 whole entry): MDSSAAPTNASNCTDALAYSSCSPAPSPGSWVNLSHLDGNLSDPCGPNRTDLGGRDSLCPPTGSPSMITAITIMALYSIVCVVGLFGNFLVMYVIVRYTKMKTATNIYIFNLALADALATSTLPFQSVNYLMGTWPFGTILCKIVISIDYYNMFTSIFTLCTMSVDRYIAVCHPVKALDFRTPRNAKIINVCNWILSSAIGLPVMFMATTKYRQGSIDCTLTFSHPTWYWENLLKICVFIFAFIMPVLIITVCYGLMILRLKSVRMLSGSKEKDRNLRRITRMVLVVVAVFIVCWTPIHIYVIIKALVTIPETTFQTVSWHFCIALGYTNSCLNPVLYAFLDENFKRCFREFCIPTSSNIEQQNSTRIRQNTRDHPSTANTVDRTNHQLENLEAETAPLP

AC50 [3] | AC50 [4] | AC50 [5] | AC50 [6] | AC50 [7] | AC50 [8] | AC50 [9] | AC50 [10] | AC50 [11] | SMILES | AC50 [1] | AC50 [2] | AC50 [12] | AC50 [13]
> 30 µM | > 30 µM | > 30 µM | > 300 µM | > 30 µM | > 30 µM | > 30 µM | 3.2 µM | > 30 µM | CCCCCCCN(CC)CCCC(O)c1ccc(NS(C)(=O)=O)cc1 (stereo not drawn) [IBUTILIDE] | – | – | 18 µM | –
> 30 µM | > 30 µM | > 30 µM | 188 µM | > 30 µM | > 30 µM | > 30 µM | > 30 µM | – | CC(C)Cc1ccc([C@H](C)C(=O)O)cc1 [DEXIBUPROFEN] | > 30 µM | > 30 µM | – | –
> 30 µM | > 30 µM | > 30 µM | 23 µM | > 30 µM | > 30 µM | > 30 µM | > 30 µM | – | CCC(=O)O[C@]1(C(=O)CCl)[C@@H](C)C[C@H]2[C@@H]3CCC4=CC(=O)C=C[C@]4(C)[C@@]3(F)[C@@H](O)C[C@@]21C [CLOBETASOL PROPIONATE] | > 30 µM | – | – | –
> 30 µM | > 30 µM | > 30 µM | 210 µM | > 30 µM | > 30 µM | > 30 µM | > 30 µM | > 30 µM | CC1(C)S[C@@H]2[C@H](NC(=O)C(C(=O)O)c3ccccc3)C(=O)N2[C@H]1C(=O)O (stereo partly drawn) [CARBENICILLIN] | > 30 µM | – | > 30 µM | –
> 30 µM | – | > 30 µM | > 300 µM | > 30 µM | > 30 µM | > 30 µM | – | – | CNC[C@H](O)c1ccc(O)c(O)c1 [EPINEPHRINE] | > 30 µM | – | – | –
> 30 µM | > 30 µM | 0.0004 µM | > 300 µM | 17 µM | > 30 µM | > 30 µM | 11 µM | > 30 µM | Cn1cc(C(=O)[C@@H]2CCc3nc[nH]c3C2)c2ccccc21 [RAMOSETRON] | – | – | 0.34 µM | –
– | > 30 µM | > 30 µM | 2.28 µM | > 10 µM | > 10 µM | > 10 µM | – | – | COc1cc(C(=O)NS(=O)(=O)c2ccccc2C)ccc1Cc1cn(C)c2ccc(NC(=O)OC3CCCC3)cc12 [ZAFIRLUKAST] | – | > 30 µM | – | –
– | > 30 µM | > 30 µM | > 300 µM | > 30 µM | > 30 µM | – | > 30 µM | > 30 µM | CN1Cc2c(N)cccc2C(c2ccccc2)C1 (stereo not drawn) [NOMIFENSINE] | > 30 µM | 4.4 µM | > 30 µM | –
> 30 µM | > 30 µM | > 30 µM | > 300 µM | > 30 µM | > 30 µM | > 30 µM | > 30 µM | > 30 µM | CC=CC1=C(C(=O)O)N2C(=O)[C@@H](NC(=O)[C@H](N)c3ccc(O)cc3)[C@H]2SC1 [CEFPROZIL] | – | – | > 30 µM | –
> 30 µM | > 30 µM | > 30 µM | > 300 µM | > 30 µM | > 30 µM | > 30 µM | > 30 µM | > 30 µM | CC(=O)Nc1ccc(CC(=O)O)cc1 [ACTARIT] | – | – | > 30 µM | –

SMILES | AC50 [3] | AC50 [4] | AC50 [5] | AC50 [6] | AC50 [7] | AC50 [8] | AC50 [9] | AC50 [10] | AC50 [11] | AC50 [1] | AC50 [2] | AC50 [12] | AC50 [13]
CC(C)(O/N=C(\C(=O)N[C@@H]1C(=O)N2C(C(=O)[O-])=C(C[n+]3ccccc3)CS[C@H]12)c1csc(N)n1)C(=O)O [CEFTAZIDIME] | > 300 µM | > 300 µM | > 300 µM | > 300 µM | > 300 µM | > 300 µM | > 300 µM | > 300 µM | > 300 µM | > 2400 µM | > 300 µM | > 300 µM | –
C[N+](C)(C)CCOP(=O)(O)OP(=O)([O-])OC[C@H]1O[C@@H](n2ccc(N)nc2=O)[C@H](O)[C@@H]1O [CITICOLINE] | > 30 µM | > 30 µM | > 30 µM | – | > 30 µM | – | – | > 30 µM | > 30 µM | > 30 µM | – | > 30 µM | > 30 µM
Cc1nnc(SCC2=C(C(=O)O)N3C(=O)[C@@H](NC(=O)Cn4cnnn4)[C@H]3SC2)s1 [CEFAZOLIN] | > 300 µM | > 300 µM | > 300 µM | > 300 µM | > 300 µM | > 300 µM | > 300 µM | > 300 µM | > 300 µM | > 2400 µM | > 300 µM | > 300 µM | –
Clc1ccc(Cn2c(CN3CCCC3)nc3ccccc32)cc1 [CLEMIZOLE] | > 30 µM | > 30 µM | > 30 µM | 29 µM | > 30 µM | > 30 µM | > 30 µM | > 30 µM | > 30 µM | > 30 µM | > 30 µM | 13 µM | –
S=P(N1CC1)(N1CC1)N1CC1 [THIOTEPA] | 9.4 µM | > 30 µM | > 30 µM | 83 µM | > 30 µM | > 30 µM | – | 4.4 µM | – | > 30 µM | 28 µM | – | –
COc1cc(C(C)=O)ccc1OCCCN1CCC(c2noc3cc(F)ccc23)CC1 [ILOPERIDONE] | 0.803 µM | > 30 µM | > 30 µM | 40 µM | 12.9 µM | > 30 µM | 1.63 µM | 0.018 µM | – | > 30 µM | 10 µM | 0.105 µM | 0.003 µM
CC(C)NC(=N)NC(=N)Nc1ccc(Cl)c(Cl)c1 [CHLORPROGUANIL] | 7.9 µM | > 30 µM | > 30 µM | – | > 30 µM | – | – | 8.9 µM | > 30 µM | > 30 µM | – | 10 µM | –
